Source: ChEMBL document CHEMBL1139872, “A high-throughput screen for aggregation-based inhibition in a large compound library” (J Med Chem, 2007)

Columns and labels:
Beta-lactamase [1] = target: T1, Beta-lactamase (Escherichia coli K-12, UniProt P00811); experiment: Inhibition of Escherichia coli AmpC beta lactamase using relaxed assay conditions in presence of 0.00001% Triton X-100 detergent
Beta-lactamase [2] = target: T1, Beta-lactamase
Description: Aggregate based-inhibition of Escherichia coli AmpC beta lactamase using stringent assay conditions in presence of 0.01% Triton X-100 detergent

T1 sequence (P00811 whole entry): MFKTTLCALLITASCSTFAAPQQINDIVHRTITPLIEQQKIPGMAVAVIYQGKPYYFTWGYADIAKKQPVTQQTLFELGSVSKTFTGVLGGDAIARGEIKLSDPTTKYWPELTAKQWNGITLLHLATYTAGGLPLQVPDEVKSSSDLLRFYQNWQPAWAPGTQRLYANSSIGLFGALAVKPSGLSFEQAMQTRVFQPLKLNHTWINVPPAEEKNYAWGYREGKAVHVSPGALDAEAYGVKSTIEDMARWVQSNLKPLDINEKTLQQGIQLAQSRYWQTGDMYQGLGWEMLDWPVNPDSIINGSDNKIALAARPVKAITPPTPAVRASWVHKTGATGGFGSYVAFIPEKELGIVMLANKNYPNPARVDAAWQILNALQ

| IC50 (Beta-lactamase [1]) [µM] | IC50 (Beta-lactamase [2]) [µM] | SMILES |
| --- | --- | --- |
| 130 | > 300 | Fc1c(F)c(F)c(CSc2nc3ccccc3[nH]2)c(F)c1F |
| > 100 | > 100 | Cc1ccc2nc(-c3ccccc3)cc(O)c2c1 |
| 20 | 40 | O=C(Nc1ccc(Oc2ccc(NC(=O)c3ccco3)c(NC(=O)c3ccco3)c2)cc1)c1ccco1 |
| 120 | > 200 | O=C(Nc1cccc2ccccc12)c1ccc(Br)o1 |
| 20 | > 66 | COc1c(F)c(F)c(C(=O)Nc2ccc(NC(=O)c3ccco3)cc2)c(F)c1F |
| 22 | 126 | O=c1[nH]c2cc(Cl)ccc2c(O)c1-c1cccc(Oc2ccccc2)c1 |
| 35 | 150 | Clc1ccccc1C(c1ccccc1)(c1ccccc1)n1ccnc1 [CLOTRIMAZOLE] |
| 20 | 100 | Clc1ccc(CSC(Cn2ccnc2)c2ccc(Cl)cc2Cl)cc1 (stereo not given) [SULCONAZOLE] |

| SMILES | IC50 (Beta-lactamase [1]) [µM] | IC50 (Beta-lactamase [2]) [µM] |
| --- | --- | --- |
| Cc1cccc(OCC(=O)Nc2cccc(-c3nnc(-c4ccccc4)o3)c2)c1C | 13 | > 66 |
| Cc1cc2c(C(C)C)c(O)c(O)c(C=O)c2c(O)c1-c1c(C)cc2c(C(C)C)c(O)c(O)c(C=O)c2c1O [GOSSYPOL] | 46 | 82 |
